These results are taken from patent US10375956B2, “Herbicidally active 2-(substituted-phenyl)-cyclopentane-1,3-dione compounds and derivatives thereof” (Syngenta Limited, priority 2013, dated 2019).

What all share (assay type): in vivo
For experiment [1], the system named is Setaria faberi (SETFA). The experiment is described as follows: Test 1 glasshouse assay, post-emergence herbicidal activity. The following applies: 312 h, post-emergence (Example 1B Table 1), after 13 days, read-out: Percentage phytotoxicity SETFA. The gist of the method:
(§1)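 Plants sprayed post-emergence after 8 days' growth with active ingredient in acetone/water (50:50) plus 0.5% Tween 20; glasshouse at 24/16° C day/night, 14 h light, 65% humidity. Visual percentage phytotoxicity scored 13 days later (100% = total damage, 0% = none).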

Experiment [2] concerns Zea mays (ZEAMX, corn/maize). Described as above. The following applies: 312 h, post-emergence (Example 1B Table 1), after 13 days, read-out: Percentage phytotoxicity ZEAMX. The gist of the method:
as §1

For experiment [3], the system named is Alopecurus myosuroides (ALOMY). The experiment is described as above. The settings on record: 312 h, after 13 days, read-out: Percentage phytotoxicity ALOMY. As for the experimental part:
(§2) Seeds of a variety of test species are sown in standard soil in pots. After cultivation for one day (pre-emergence) or after 8 days cultivation (post-emergence) under controlled conditions in a glasshouse (at 24/16° C., day/night; 14 hours light; 65% humidity), the plants are sprayed with an aqueous spray solution derived from the formulation of the “technical” (i.e. unformulated) active ingredient in acetone/water (50:50) solution containing 0.5% Tween 20 (polyoxyethylene sorbitan monolaurate, CAS Registry Number 9005-64-5). The test plants are then grown on under controlled conditions in a glasshouse (at 24/16° C., day/night; 14 hours light; 65% humidity) and watered twice daily. After 13 days for pre- or post-emergence, the test is evaluated visually, and an assessed percentage phytotoxicity score is given for each herbicidal application on each plant species (where 100%=total damage to plant; 0%=no damage to plant).
(§3) Test plants include the following: Abutilon theophrasti (ABUTH) and Amaranthus retroflexus (AMARE); these are all dicotyledonous (broadleaved) weeds. Setaria faberi (SETFA), Alopecurus myosuroides (ALOMY), and Echinochloa crus-galli (ECHCG); these are all grassy monocotyledonous weeds. Also: Zea mays (ZEAMX, corn/maize), which can be a grassy weed (“volunteer” corn) in some circumstances.
(§4) Lolium perenne (LOLPE), Alopecurus myosuroides (ALOMY), Echinochloa crus-galli (ECHCG), and Avena fatua (AVEFA); these are all grassy monocotyledonous weeds. Cool climate crop plant: Triticum aestivum (TRZAW, winter wheat).

The subject of experiment [4] is Echinochloa crus-galli (ECHCG). Described as above. The settings on record: 312 h, after 13 days, read-out: Percentage phytotoxicity ECHCG. The procedure: as §2, §3, §4
Experiment [5] has as its system Digitaria sanguinalis (DIGSA). The experiment is described as follows: Test 2 glasshouse assay (IF50 formulation, X-77), pre-emergence herbicidal activity. The following applies: 480 h, 250 g/ha, 20DAA, read-out: Percentage phytotoxicity DIGSA. As for the experimental part: (§5) Seeds of a variety of monocotyledonous and dicotyledonous test plants are sown in standard soil in pots. The plants are cultivated for one day (for pre-emergence) or for about 12 days (for post-emergence) under controlled conditions in a glasshouse (warm climate species at 24/18° C., cool climate species at 20/16° C., both at day/night; 16 hours light; 65% humidity).
(§6) An “instant formulation”, known as the “IF50”, containing 50 g/liter (i.e. 5% w/v) of the “technical” (i.e. unformulated) active ingredient is prepared by dissolving the active ingredient in a mixture of organic solvents and emulsifier, details of which are provided in the Table below. This IF50 is then mixed with a small, variable amount of acetone to aid dissolution, before addition of a 0.2% v/v aqueous solution of the adjuvant X-77 (which is a mixture of alkyl aryl polyoxyethylene glycols and free fatty acids in isopropanol, CAS Registry number 11097-66-8), as the aqueous diluent, to form an aqueous spray solution which contains a predetermined concentration of the active ingredient (which varies depending on the application rate of the active ingredient to the plants) and 0.2% v/v of the adjuvant X-77. This aqueous spray solution is then sprayed onto the plants, after one day's cultivation (for pre-emergence), or after about 12 days' cultivation (range=10-13 days) (for post-emergence).
(§7) The test plants are then grown on, in a glasshouse (greenhouse) under controlled conditions (warm climate species at 24/18° C., cool climate species at 20/16° C., both at day/night; 16 hours light; 65% humidity) and are watered twice daily. 15 days after application of the test herbicide (15DAA) (for post-emergence), and 20 days after application of the test herbicide (20DAA) (for pre-emergence), the test plants are evaluated visually, and an assessed percentage phytotoxicity score is given for each herbicidal application on each plant species (with 100%=total damage to plant; 0%=no damage to plant).
(§8) Warm climate (“warm season”) grassy monocotyledonous weeds: Setaria faberi (SETFA), Panicum miliaceum (PANMI), Sorghum vulgare Pers. (SORVU) (or Sorghum bicolor (L) Moench ssp. Bicolor), Digitaria sanguinalis (DIGSA), Echinochloa crus-galli (ECHCG), and Brachiaria plantaginea (BRAPL).

Experiment [6] relates to Echinochloa crus-galli (ECHCG). The experiment is described as above. The settings on record: 480 h, 250 g/ha, 20DAA, read-out: Percentage phytotoxicity ECHCG. As for the experimental part: as §5, §6, §7, §8
Experiment [7] has as its system Panicum miliaceum (PANMI). The description is as above. The following applies: 480 h, 250 g/ha, 20DAA, read-out: Percentage phytotoxicity PANMI. As for the experimental part: as §5, §6, §7, §8
Experiment [8] has as its system Setaria faberi (SETFA). Described as above. The settings on record: 480 h, 250 g/ha, 20DAA, read-out: Percentage phytotoxicity SETFA. The procedure:
as §5, §6, §7, §8

Experiment [9] deals with Sorghum vulgare Pers. (SORVU). The experiment is described as above. The settings on record: Sorghum bicolor, 480 h, 250 g/ha, 20DAA, read-out: Percentage phytotoxicity SORVU. As for the experimental part: as §5, §6, §7, §8
The subject of experiment [10] is Alopecurus myosuroides (ALOMY). The experiment is described as follows: Test 2 glasshouse assay (IF50 formulation, X-77), post-emergence herbicidal activity. The settings on record: 360 h, 15 DAA, visual score, read-out: Post-emergence herbicidal activity (percentage phytotoxicity) ALOMY; for pest or weed control at 125 g/ha: application rate 125 g/ha; for pest or weed control at 250 g/ha: application rate 250 g/ha. The procedure: as §5, §6, §7
(§9) Cool climate (“cool season”) grassy monocotyledonous weeds: Alopecurus myosuroides (ALOMY), Avena fatua (AVEFA), Lolium perenne (LOLPE).

The next experiment has as its system Avena fatua (AVEFA). Described as above. The following applies: 360 h, 15 DAA, visual score, read-out: Post-emergence herbicidal activity (percentage phytotoxicity) AVEFA; for pest or weed control at 125 g/ha: application rate 125 g/ha; for pest or weed control at 250 g/ha: application rate 250 g/ha. As for the experimental part:
as §5, §6, §7, §9

A further experiment deals with Lolium perenne (LOLPE). The description is as above. The settings on record: 360 h, 15 DAA, visual score, read-out: Post-emergence herbicidal activity (percentage phytotoxicity) LOLPE; for pest or weed control at 125 g/ha: application rate 125 g/ha; for pest or weed control at 250 g/ha: application rate 250 g/ha. As for the experimental part:
as §5, §6, §7, §9

Setting [11] is: post-emergence (Example 1B Table 1).
The mark [12] stands for this setting: post-emergence (Example 1B Table 2).
Setting [13] is: post-emergence (Example 1B Table 2), 62.5 g/ha.

As for `C#CCC1CC(=O)C(c2c(F)cc(-c3ccc(Cl)cc3)cc2Cl)C1=O` (centres unmarked) [Compound A6, 2-[2-chloro-4-(4-chlorophenyl)-6-fluorophenyl]-4-prop-2-ynylcyclopentane-1,3-dione], the pest or weed control at 30 g/ha in the experiment on Setaria faberi (SETFA) [1] amounted to 100%; in experiment [2], 100%; in experiment [3] (setting [11]) it was 80%; in [4] (setting [11]), 100%. Further, the pest or weed control at 250 g/ha (in the experiment with Setaria faberi (SETFA) [1]; in [2]; in [3] (setting [11]); in experiment [3] (setting [12]); in experiment [4] (setting [11]); in [4] (setting [12])) was 100% throughout. Besides, the pest or weed control at 250 g/ha is 20% in experiment [5]; 50% in [6]; 0% in experiment [7]; 0% in the experiment on Setaria faberi (SETFA) [8]; 40% in experiment [9]; 100% in experiment [10]. The pest or weed control at 250 g/ha came to 80% in the experiment with Avena fatua (AVEFA) and 70% with Lolium perenne (LOLPE). For the same compound, the pest or weed control at 125 g/ha amounted to 80% in [10], 70% in the experiment on Avena fatua (AVEFA) and 30% in the experiment with Lolium perenne (LOLPE).

Consider `C#CCC1CC(=O)C(c2c(C)cc(C)cc2C)C1=O` (centres unmarked) [Compound A23], for which the figures for the pest or weed control at 62.5 g/ha in experiment [3] (setting [13]) and in experiment [4] (setting [13]) were 90% and 100%, respectively. Moreover, the pest or weed control at 250 g/ha in [3] (setting [12]) came to 100%; in [4] (setting [12]), 100%; in experiment [5], 90%; in [6], 100%; in experiment [7], 100%; in the experiment with Setaria faberi (SETFA) [8] it was 90%. Moreover, the pest or weed control at 250 g/ha in experiment [9] is 70%. Moreover, the figures for the pest or weed control at 125 g/ha (in [10]; in the experiment with Avena fatua (AVEFA); in the experiment on Lolium perenne (LOLPE)) were 90%, 80% and 90%, respectively.

Regarding `C#CCC1CC(=O)C(c2cc(-c3ncc(Cl)cc3F)ccc2C)C1=O` (centres unmarked) [Compound A18], the pest or weed control at 30 g/ha in the experiment with Setaria faberi (SETFA) [1] is 60%; in experiment [2], 60%; in experiment [3] (setting [11]), 10%; in [4] (setting [11]), 60%. In addition, the pest or weed control at 250 g/ha with Setaria faberi (SETFA) [1] is 80%; in experiment [2], 80%; in [3] (setting [11]) it was 70%; in [4] (setting [11]) it was 80%; in experiment [10], 30%; with Avena fatua (AVEFA), 30%. For the same compound, the pest or weed control at 250 g/ha with Lolium perenne (LOLPE) is 10%.

On to `C#CCC1CC(=O)C(c2cc(-c3ncc(Cl)cn3)ccc2C)C1=O` (centres unmarked) [Compound A19], for which the pest or weed control at 30 g/ha was determined as 70% in the experiment on Setaria faberi (SETFA) [1], 40% in experiment [2], 10% in experiment [3] (setting [11]) and 70% in experiment [4] (setting [11]). The pest or weed control at 250 g/ha with Setaria faberi (SETFA) [1] was determined as 90%; in experiment [2], 30%; in [3] (setting [11]), 60%; in [4] (setting [11]) it was 90%; in experiment [10] it was 40%; in the experiment on Avena fatua (AVEFA), 10%. Moreover, the pest or weed control at 250 g/ha in the experiment with Lolium perenne (LOLPE) was determined as 10%.

As to `C#CCC1CC(=O)C(c2c(F)cc(-c3ccc(F)cc3)cc2OC)C1=O` (centres unmarked) [Compound A20, 2-[2-fluoro-4-(4-fluorophenyl)-6-methoxyphenyl]-4-prop-2-ynylcyclopentane-1,3-dione], the pest or weed control at 30 g/ha was 80% in the experiment on Setaria faberi (SETFA) [1], 90% in experiment [2], 50% in experiment [3] (setting [11]) and 80% in [4] (setting [11]). The pest or weed control at 250 g/ha (in the experiment on Setaria faberi (SETFA) [1]; in experiment [2]; in experiment [3] (setting [11]); in experiment [4] (setting [11])) was 100% in each case.

As to `C#CCC1CC(=O)C(c2c(F)cc(-c3ccc(F)cc3F)cc2OC)C1=O` (centres unmarked) [Compound A21], the pest or weed control at 30 g/ha in the experiment on Setaria faberi (SETFA) [1] worked out at 80%; in experiment [2], 100%; in experiment [3] (setting [11]), 40%; in experiment [4] (setting [11]) it was 90%. Moreover, the pest or weed control at 250 g/ha in the experiment with Setaria faberi (SETFA) [1] amounted to 100%; in experiment [2], 100%; in experiment [3] (setting [11]), 70%; in experiment [4] (setting [11]), 100%.
